# Assay results reported in ChEMBL document CHEMBL5154908, “Design, Synthesis, and Biological Characterization of Inhaled p38α/β MAPK Inhibitors for the Treatment of Lung Inflammatory Diseases” (J Med Chem, 2022).
# Tested on: not listed separately
# Assay: Metabolic stability in rat liver microsomes assessed as half life at 1 uM preincubated for 10 mins followed by NADPH addition and measured after 30 mins by LC/MS/MS analysis
# Assay type: ADME, Microsome
# Settings: time 40 min
row,SMILES,half-life at 1 µM [h]
1,Cc1ccc(-n2nc(C(C)(C)C)cc2NC(=O)N[C@H]2CC[C@@H](Oc3ccc4nnc(N5CCCCC5)n4c3)c3ccccc32)cc1,< 0.167

# Target: T1, Mitogen-activated protein kinase 14 (Homo sapiens, UniProt Q16539)
# T1 sequence (Q16539 whole entry): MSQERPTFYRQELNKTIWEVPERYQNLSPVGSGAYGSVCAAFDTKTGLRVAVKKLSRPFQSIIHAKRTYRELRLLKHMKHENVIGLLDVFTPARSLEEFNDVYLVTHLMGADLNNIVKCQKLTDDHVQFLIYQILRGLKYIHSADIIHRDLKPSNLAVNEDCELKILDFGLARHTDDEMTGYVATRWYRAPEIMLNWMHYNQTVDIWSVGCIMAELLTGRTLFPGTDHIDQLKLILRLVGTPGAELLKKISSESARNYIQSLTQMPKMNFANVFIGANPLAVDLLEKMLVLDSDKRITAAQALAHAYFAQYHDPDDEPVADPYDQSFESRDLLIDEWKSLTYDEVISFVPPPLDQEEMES
# Assay: Inhibition of human recombinant full length GST-tagged p38alpha expressed in Escherichia coli preincubated for 2 hrs followed by ATP addition and measured after 1 hr by Alpha screen assay
# Settings: not given
row,SMILES,IC50 [nM]
1,Cc1ccc(-n2nc(C(C)(C)C)cc2NC(=O)N[C@H]2CC[C@@H](Oc3ccc4nnc(N5CCCCC5)n4c3)c3ccccc32)cc1,0.3

# Tested on: not listed separately
# Assay: Inhibition of LPS-stimulated TNFalpha release in human PBMC cells preincubated for 1 hr followed by LPS stimulation and measured after 18 hrs
# Assay type: functional, cell-based
# Settings: not given
row,SMILES,IC50 [nM]
1,Cc1ccc(-n2nc(C(C)(C)C)cc2NC(=O)N[C@H]2CC[C@@H](Oc3ccc4nnc(N5CCCCC5)n4c3)c3ccccc32)cc1,0.3

# Target: T1, Mitogen-activated protein kinase 14
# Assay: Displacement of SKF-86002 from human inactivated p38alpha assessed as dissociation half life incubated for 2 hrs by fluorescence based analysis
# Settings: not given
row,SMILES,T1/2 [h]
1,Cc1ccc(-n2nc(C(C)(C)C)cc2NC(=O)N[C@H]2CC[C@@H](Oc3ccc4nnc(N5CCCCC5)n4c3)c3ccccc32)cc1,> 16

# Target: Mitogen-activated protein kinase 11 (Homo sapiens, UniProt Q15759)
# Sequence (Q15759 whole entry): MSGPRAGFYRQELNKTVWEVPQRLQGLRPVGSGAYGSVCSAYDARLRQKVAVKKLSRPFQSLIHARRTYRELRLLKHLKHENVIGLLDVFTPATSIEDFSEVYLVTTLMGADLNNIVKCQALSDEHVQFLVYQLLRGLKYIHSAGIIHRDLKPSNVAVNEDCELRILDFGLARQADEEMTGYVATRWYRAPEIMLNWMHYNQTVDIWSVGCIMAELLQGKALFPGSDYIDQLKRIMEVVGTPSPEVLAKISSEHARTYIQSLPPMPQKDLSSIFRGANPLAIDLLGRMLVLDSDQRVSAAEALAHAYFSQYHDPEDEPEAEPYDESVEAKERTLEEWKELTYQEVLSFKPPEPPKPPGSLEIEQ
# Assay: Inhibition of recombinant human full length His-tagged p38beta expressed in baculovirus expression system preincubated for 2 hrs followed by ATP addition and measured after 1 hr by Alpha screen assay
# Settings: not given
row,SMILES,IC50 [nM]
1,Cc1ccc(-n2nc(C(C)(C)C)cc2NC(=O)N[C@H]2CC[C@@H](Oc3ccc4nnc(N5CCCCC5)n4c3)c3ccccc32)cc1,0.4

# Target: T2, Mitogen-activated protein kinase 12 (Homo sapiens, UniProt P53778)
# T2 sequence (P53778 whole entry): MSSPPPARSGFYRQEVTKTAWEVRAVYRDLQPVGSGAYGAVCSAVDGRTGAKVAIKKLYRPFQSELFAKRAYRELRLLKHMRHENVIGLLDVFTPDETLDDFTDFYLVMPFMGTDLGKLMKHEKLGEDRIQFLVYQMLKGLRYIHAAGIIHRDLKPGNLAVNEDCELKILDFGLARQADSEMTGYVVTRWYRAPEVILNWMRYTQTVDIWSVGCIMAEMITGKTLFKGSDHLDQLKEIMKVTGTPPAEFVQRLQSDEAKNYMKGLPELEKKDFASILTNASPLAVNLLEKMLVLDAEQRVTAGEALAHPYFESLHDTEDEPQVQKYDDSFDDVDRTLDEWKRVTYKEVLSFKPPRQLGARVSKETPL
# Assay: Inhibition of recombinant human full length His-tagged p38gamma expressed in baculovirus expression system preincubated for 2 hrs followed by ATP addition and measured after 1 hr by Alpha screen assay
# Settings: not given
row,SMILES,IC50 [nM]
1,Cc1ccc(-n2nc(C(C)(C)C)cc2NC(=O)N[C@H]2CC[C@@H](Oc3ccc4nnc(N5CCCCC5)n4c3)c3ccccc32)cc1,16

# Target: T3, Mitogen-activated protein kinase 13 (Homo sapiens, UniProt O15264)
# T3 sequence (O15264 whole entry): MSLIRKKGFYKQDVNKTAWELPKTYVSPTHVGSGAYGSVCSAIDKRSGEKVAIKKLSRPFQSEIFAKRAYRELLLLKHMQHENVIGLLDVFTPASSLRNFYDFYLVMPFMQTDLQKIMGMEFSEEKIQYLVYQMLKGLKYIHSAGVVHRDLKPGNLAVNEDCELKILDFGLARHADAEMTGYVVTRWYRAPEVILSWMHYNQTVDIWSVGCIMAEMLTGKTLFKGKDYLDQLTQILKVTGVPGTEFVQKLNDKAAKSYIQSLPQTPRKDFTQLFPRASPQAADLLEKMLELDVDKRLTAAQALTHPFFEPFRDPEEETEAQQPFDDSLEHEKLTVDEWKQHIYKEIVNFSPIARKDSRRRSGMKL
# Assay: Inhibition of recombinant human full length His-tagged p38delta expressed in baculovirus expression system preincubated for 2 hrs followed by ATP addition and measured after 1 hr by Alpha screen assay
# Settings: not given
row,SMILES,IC50 [nM]
1,Cc1ccc(-n2nc(C(C)(C)C)cc2NC(=O)N[C@H]2CC[C@@H](Oc3ccc4nnc(N5CCCCC5)n4c3)c3ccccc32)cc1,> 10000

# Tested on: not listed separately
# Assay: Solubility of the compound at >=1 mg/ml measured after 30 mins by HPLC analysis
# Assay type: physicochemical
# Settings: not given
row,SMILES,solubility at 0.5 h [µg/mL]
1,Cc1ccc(-n2nc(C(C)(C)C)cc2NC(=O)N[C@H]2CC[C@@H](Oc3ccc4nnc(N5CCCCC5)n4c3)c3ccccc32)cc1,30

# Tested on: not listed separately
# Assay: Permeability across apical to basolateral side in human Caco-2 cells at 10 uM measured after 60 mins by LC/MS/MS analysis
# Assay type: ADME, cell-based
# Settings: read-out: permeability
row,SMILES,"Papp A→B at 1 h, 10 µM [×10⁻⁶ cm/s]"
1,Cc1ccc(-n2nc(C(C)(C)C)cc2NC(=O)N[C@H]2CC[C@@H](Oc3ccc4nnc(N5CCCCC5)n4c3)c3ccccc32)cc1,2.5

# Tested on: not listed separately
# Assay: Protein binding in rat plasma at 10 uM incubated for 4 hrs by LC/MS/MS analysis
# Assay type: ADME, cell-free
# Settings: read-out: PPB (converted)
row,SMILES,"fraction unbound at 4 h, 10 µM"
1,Cc1ccc(-n2nc(C(C)(C)C)cc2NC(=O)N[C@H]2CC[C@@H](Oc3ccc4nnc(N5CCCCC5)n4c3)c3ccccc32)cc1,< 0.001

# Tested on: not listed separately
# Assay: Protein binding in rat lung homogenate at 10 uM incubated for 4 hrs by LC/MS/MS analysis
# Assay type: ADME, tissue-based
# Settings: read-out: PB (converted)
row,SMILES,"fraction unbound at 4 h, 10 µM"
1,Cc1ccc(-n2nc(C(C)(C)C)cc2NC(=O)N[C@H]2CC[C@@H](Oc3ccc4nnc(N5CCCCC5)n4c3)c3ccccc32)cc1,0.001

# Tested on: not listed separately
# Assay: Cmax in Sprague-Dawley rat plasma at 0.03 mg/kg, IT measured after 0.8 hrs by LC/MS/MS analysis
# Assay type: ADME, organism-based
# Design: dose 0.03 mg/kg, time 0.8 hrs, route it
# Settings: not given
row,SMILES,Cmax [µM]
1,Cc1ccc(-n2nc(C(C)(C)C)cc2NC(=O)N[C@H]2CC[C@@H](Oc3ccc4nnc(N5CCCCC5)n4c3)c3ccccc32)cc1,0.06

# Tested on: not listed separately
# Assay: Cmax in Sprague-Dawley rat lung homogenate at 0.03 mg/kg, IT measured after 0.8 hrs by LC/MS/MS analysis
# Assay type: ADME, organism-based
# Design: time 0.8 hrs, dose 0.03 mg/kg, route it
# Settings: not given
row,SMILES,Cmax [µM]
1,Cc1ccc(-n2nc(C(C)(C)C)cc2NC(=O)N[C@H]2CC[C@@H](Oc3ccc4nnc(N5CCCCC5)n4c3)c3ccccc32)cc1,3.18

# Tested on: not listed separately
# Assay: Selectivity index, ratio of drug concentration in Sprague-Dawley rat lung homogenate to IC50 for human p38alpha
# Assay type: tissue-based
# Settings: tissue homogenate
row,SMILES,Ratio
1,Cc1ccc(-n2nc(C(C)(C)C)cc2NC(=O)N[C@H]2CC[C@@H](Oc3ccc4nnc(N5CCCCC5)n4c3)c3ccccc32)cc1,40

# Tested on: not listed separately
# Assay: Drug uptake in Sprague-Dawley rat lung homogenate at 0.03 mg/kg, IT measured after 7 hrs by LC/MS/MS analysis
# Assay type: ADME, organism-based
# Settings: in vivo, other
row,SMILES,Drug uptake [%]
1,Cc1ccc(-n2nc(C(C)(C)C)cc2NC(=O)N[C@H]2CC[C@@H](Oc3ccc4nnc(N5CCCCC5)n4c3)c3ccccc32)cc1,21

# Tested on: not listed separately
# Assay: Drug uptake in Sprague-Dawley rat lung homogenate at 0.03 mg/kg, IT measured after 24 hrs by LC/MS/MS analysis
# Assay type: ADME, organism-based
# Settings: in vivo, other
row,SMILES,Drug uptake [%]
1,Cc1ccc(-n2nc(C(C)(C)C)cc2NC(=O)N[C@H]2CC[C@@H](Oc3ccc4nnc(N5CCCCC5)n4c3)c3ccccc32)cc1,19

# Tested on: not listed separately
# Assay: Efflux ratio of permeability in human Caco-2 cells at 10 uM measured after 60 mins by LC-MS/MS analysis
# Assay type: ADME, cell-based
# Settings: not given
row,SMILES,"efflux ratio at 1 h, 10 µM"
1,Cc1ccc(-n2nc(C(C)(C)C)cc2NC(=O)N[C@H]2CC[C@@H](Oc3ccc4nnc(N5CCCCC5)n4c3)c3ccccc32)cc1,> 2.5

# Tested on: Rattus norvegicus
# Assay: Antiinflammatory activity against LPS-induced Sprague-Dawley rat inflammatory model assessed as inhibition of neutrophil cells release in BALF at 0.3 mg/kg, IT measured after 12 hrs relative to control
# Assay type: functional
# Settings: not given
row,SMILES,inhibition in vivo at 0.3 mg/kg [%]
1,Cc1ccc(-n2nc(C(C)(C)C)cc2NC(=O)N[C@H]2CC[C@@H](Oc3ccc4nnc(N5CCCCC5)n4c3)c3ccccc32)cc1,20

# Tested on: not listed separately
# Assay: Drug concentration in Sprague-Dawley rat lung homogenate at 0.3 mg/kg, IT measured after 24 hrs by LC/MS/MS analysis
# Assay type: ADME, organism-based
# Settings: read-out: Ct
row,SMILES,concentration at 24 h [µM]
1,Cc1ccc(-n2nc(C(C)(C)C)cc2NC(=O)N[C@H]2CC[C@@H](Oc3ccc4nnc(N5CCCCC5)n4c3)c3ccccc32)cc1,12.1
